Results reported in publication PMC7156458, “Synthetic biology based construction of biological activity-related library of fungal decalin-containing diterpenoid pyrones” (Nature Communications, 2020).

Biological target: Aβ42 (Homo sapiens, UniProt P05067)
Experiment: Th-T (thioflavin-T) assay of Aβ42 aggregation
Type: biochemical
Settings: for Th-T assay plate reading, mean of three wells (Supplementary Fig. 47): source data, Ab alone and No Ab as controls

Aβ42, sequence (P05067 672-713): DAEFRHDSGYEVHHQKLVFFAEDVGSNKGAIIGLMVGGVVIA

- Th-T fluorescence, mean of three wells (Aβ42 aggregation time course, reading M118): 2.194
- Th-T fluorescence, mean of three wells (Aβ42 aggregation time course, reading M119): 2.214
- Th-T fluorescence, mean of three wells (Aβ42 aggregation time course, reading M120): 2.225
- Th-T fluorescence, mean of three wells (Aβ42 aggregation time course, reading M121): 2.184
- Th-T fluorescence, mean of three wells (Aβ42 aggregation time course, reading M122): 2.1853
- Th-T fluorescence, mean of three wells (Aβ42 aggregation time course, reading M123): 2.186
- Th-T fluorescence, mean of three wells (Aβ42 aggregation time course, reading M124): 2.207
- Th-T fluorescence, mean of three wells (Aβ42 aggregation time course, reading M125): 2.241
- Th-T fluorescence, mean of three wells (Aβ42 aggregation time course, reading M126): 2.218
- Th-T fluorescence, mean of three wells (Aβ42 aggregation time course, reading M127): 2.187
- Th-T fluorescence, mean of three wells (Aβ42 aggregation time course, reading M128): 2.217
- Th-T fluorescence, mean of three wells (Aβ42 aggregation time course, reading M129): 2.196
- Th-T fluorescence, mean of three wells (Aβ42 aggregation time course, reading M130): 2.222
- Th-T fluorescence, mean of three wells (Aβ42 aggregation time course, reading M131): 2.189
- Th-T fluorescence, mean of three wells (Aβ42 aggregation time course, reading M132): 2.211
- Th-T fluorescence, mean of three wells (Aβ42 aggregation time course, reading M133): 2.1957
- Th-T fluorescence, mean of three wells (Aβ42 aggregation time course, reading M134): 2.2077
- Th-T fluorescence, mean of three wells (Aβ42 aggregation time course, reading M135): 2.191
- Th-T fluorescence, mean of three wells (Aβ42 aggregation time course, reading M136): 2.198
- Th-T fluorescence, mean of three wells (Supplementary Fig. 47, reading M138): 2.179
- Th-T fluorescence, mean of three wells (Supplementary Fig. 47, reading M139): 2.196
- Th-T fluorescence, mean of three wells (Supplementary Fig. 47, reading M140): 2.2093
- Th-T fluorescence, mean of three wells (Supplementary Fig. 47, reading M141): 2.191
- Th-T fluorescence, mean of three wells (Supplementary Fig. 47, reading M142): 2.182
- Th-T fluorescence, mean of three wells (Supplementary Fig. 47, reading M143): 2.202
- Th-T fluorescence, mean of three wells (Supplementary Fig. 47, reading M144): 2.22
- Th-T fluorescence, mean of three wells (Supplementary Fig. 47, reading M145): 2.173
- Th-T fluorescence, mean of three wells (Supplementary Fig. 47 source data, measurement M38 of time course): 2.163
- Th-T fluorescence, mean of three wells (Supplementary Fig. 47 source data, measurement M39 of time course): 2.1439
- Th-T fluorescence, mean of three wells (Supplementary Fig. 47 source data, measurement M40 of time course): 2.183
- Th-T fluorescence, mean of three wells (Supplementary Fig. 47 source data, measurement M41 of time course): 2.185
- Th-T fluorescence, mean of three wells (Supplementary Fig. 47 source data, measurement M42 of time course): 2.198
- Th-T fluorescence, mean of three wells (Supplementary Fig. 47 source data, measurement M43 of time course): 2.197
- Th-T fluorescence, mean of three wells (Supplementary Fig. 47 source data, measurement M44 of time course): 2.1886
- Th-T fluorescence, mean of three wells (Supplementary Fig. 47 source data, measurement M45 of time course): 2.191
- Th-T fluorescence, mean of three wells (Supplementary Fig. 47 source data, measurement M46 of time course): 2.181
- Th-T fluorescence, mean of three wells (Supplementary Fig. 47 source data, measurement M47 of time course): 2.191
- Th-T fluorescence, mean of three wells (Supplementary Fig. 47 source data, measurement M48 of time course): 2.202
- Th-T fluorescence, mean of three wells (Supplementary Fig. 47 source data, measurement M49 of time course): 2.2088
- Th-T fluorescence, mean of three wells (Supplementary Fig. 47 source data, measurement M50 of time course): 2.229
- Th-T fluorescence, mean of three wells (Supplementary Fig. 47 source data, measurement M51 of time course): 2.215
- Th-T fluorescence, mean of three wells (Supplementary Fig. 47 source data, measurement M52 of time course): 2.214
- Th-T fluorescence, mean of three wells (Supplementary Fig. 47 source data, measurement M53 of time course): 2.236
- Th-T fluorescence, mean of three wells (Supplementary Fig. 47 source data, measurement M54 of time course): 2.223
- Th-T fluorescence, mean of three wells (Supplementary Fig. 47 source data, measurement M55 of time course): 2.205
- Th-T fluorescence, mean of three wells (Supplementary Fig. 47 source data, measurement M56 of time course): 2.204
- Th-T assay plate reading, mean of three wells (Supplementary Fig. 47) (measurement M2): 0.2095
- Th-T assay plate reading, mean of three wells (Supplementary Fig. 47) (measurement M3): 0.2324
- Th-T assay plate reading, mean of three wells (Supplementary Fig. 47) (measurement M4): 0.2683
- Th-T assay plate reading, mean of three wells (Supplementary Fig. 47) (measurement M5): 0.2913
- Th-T assay plate reading, mean of three wells (Supplementary Fig. 47) (measurement M6): 0.3294
- Th-T assay plate reading, mean of three wells (Supplementary Fig. 47) (measurement M7): 0.3614
- Th-T assay plate reading, mean of three wells (Supplementary Fig. 47) (measurement M8): 0.4027
- Th-T assay plate reading, mean of three wells (Supplementary Fig. 47) (measurement M9): 0.444
- Th-T assay plate reading, mean of three wells (Supplementary Fig. 47) (measurement M10): 0.4702
- Th-T assay plate reading, mean of three wells (Supplementary Fig. 47) (measurement M11): 0.5005
- Th-T assay plate reading, mean of three wells (Supplementary Fig. 47) (measurement M12): 0.5205
- Th-T assay plate reading, mean of three wells (Supplementary Fig. 47) (measurement M13): 0.553
- Th-T assay plate reading, mean of three wells (Supplementary Fig. 47) (measurement M14): 0.605
- Th-T assay plate reading, mean of three wells (Supplementary Fig. 47) (measurement M15): 0.733
- Th-T assay plate reading, mean of three wells (Supplementary Fig. 47) (measurement M16): 0.9658
- Th-T fluorescence, mean of three wells (reading M18, Supplementary Fig. 47 source data): 1.528
- Th-T fluorescence, mean of three wells (reading M19, Supplementary Fig. 47 source data): 1.697
- Th-T fluorescence, mean of three wells (reading M20, Supplementary Fig. 47 source data): 1.804
- Th-T fluorescence, mean of three wells (reading M21, Supplementary Fig. 47 source data): 1.844
- Th-T fluorescence, mean of three wells (reading M22, Supplementary Fig. 47 source data): 1.86
- Th-T fluorescence, mean of three wells (reading M23, Supplementary Fig. 47 source data): 1.891
- Th-T fluorescence, mean of three wells (reading M24, Supplementary Fig. 47 source data): 1.925
- Th-T fluorescence, mean of three wells (reading M25, Supplementary Fig. 47 source data): 1.959
- Th-T fluorescence, mean of three wells (reading M26, Supplementary Fig. 47 source data): 2.003
- Th-T fluorescence, mean of three wells (reading M27, Supplementary Fig. 47 source data): 2.003
- Th-T fluorescence, mean of three wells (reading M28, Supplementary Fig. 47 source data): 2.0134
- Th-T fluorescence, mean of three wells (reading M29, Supplementary Fig. 47 source data): 2.048
- Th-T fluorescence, mean of three wells (reading M30, Supplementary Fig. 47 source data): 2.063
- Th-T fluorescence, mean of three wells (reading M31, Supplementary Fig. 47 source data): 2.093
- Th-T fluorescence, mean of three wells (reading M32, Supplementary Fig. 47 source data): 2.109
- Th-T fluorescence, mean of three wells (reading M33, Supplementary Fig. 47 source data): 2.135
- Th-T fluorescence, mean of three wells (reading M34, Supplementary Fig. 47 source data): 2.108
- Th-T fluorescence, mean of three wells (reading M35, Supplementary Fig. 47 source data): 2.139
- Th-T fluorescence, mean of three wells (reading M36, Supplementary Fig. 47 source data): 2.159
- Th-T fluorescence, mean of three wells (time course, reading M58): 2.216
- Th-T fluorescence, mean of three wells (time course, reading M59): 2.2236
- Th-T fluorescence, mean of three wells (time course, reading M60): 2.219
- Th-T fluorescence, mean of three wells (time course, reading M61): 2.226
- Th-T fluorescence, mean of three wells (time course, reading M62): 2.227
- Th-T fluorescence, mean of three wells (time course, reading M63): 2.25
- Th-T fluorescence, mean of three wells (time course, reading M64): 2.223
- Th-T fluorescence, mean of three wells (time course, reading M65): 2.24
- Th-T fluorescence, mean of three wells (time course, reading M66): 2.247
- Th-T fluorescence, mean of three wells (time course, reading M67): 2.214
- Th-T fluorescence, mean of three wells (time course, reading M68): 2.201
- Th-T fluorescence, mean of three wells (time course, reading M69): 2.2304
- Th-T fluorescence, mean of three wells (time course, reading M70): 2.212
- Th-T fluorescence, mean of three wells (time course, reading M71): 2.214
- Th-T fluorescence, mean of three wells (time course, reading M72): 2.213
- Th-T fluorescence, mean of three wells (time course, reading M73): 2.224
- Th-T fluorescence, mean of three wells (time-course reading M98, Supplementary Fig. 47 source data): 2.211
- Th-T fluorescence, mean of three wells (time-course reading M99, Supplementary Fig. 47 source data): 2.236
- Th-T fluorescence, mean of three wells (time-course reading M100, Supplementary Fig. 47 source data): 2.235
- Th-T fluorescence, mean of three wells (time-course reading M101, Supplementary Fig. 47 source data): 2.216
- Th-T fluorescence, mean of three wells (time-course reading M102, Supplementary Fig. 47 source data): 2.236
- Th-T fluorescence, mean of three wells (time-course reading M103, Supplementary Fig. 47 source data): 2.209
- Th-T fluorescence, mean of three wells (time-course reading M104, Supplementary Fig. 47 source data): 2.206
- Th-T fluorescence, mean of three wells (time-course reading M105, Supplementary Fig. 47 source data): 2.201
- Th-T fluorescence, mean of three wells (time-course reading M106, Supplementary Fig. 47 source data): 2.237
- Th-T fluorescence, mean of three wells (time-course reading M107, Supplementary Fig. 47 source data): 2.2129
- Th-T fluorescence, mean of three wells (time-course reading M108, Supplementary Fig. 47 source data): 2.1995
- Th-T fluorescence, mean of three wells (time-course reading M109, Supplementary Fig. 47 source data): 2.203
- Th-T fluorescence, mean of three wells (time-course reading M110, Supplementary Fig. 47 source data): 2.217
- Th-T fluorescence, mean of three wells (time-course reading M111, Supplementary Fig. 47 source data): 2.201
- Th-T fluorescence, mean of three wells (time-course reading M112, Supplementary Fig. 47 source data): 2.214
- Th-T fluorescence, mean of three wells (time-course reading M113, Supplementary Fig. 47 source data): 2.2232
- Th-T fluorescence, mean of three wells (time-course reading M114, Supplementary Fig. 47 source data): 2.196
- Th-T fluorescence, mean of three wells (time-course reading M115, Supplementary Fig. 47 source data): 2.1937
- Th-T fluorescence, mean of three wells (time-course reading M116, Supplementary Fig. 47 source data): 2.237
SMILES: C=C1CCC2C(C)(CCC=C(C)C)C(=O)CCC2(C)C1Cc1c(O)c(C)c(C)oc1=O (stereo not shown) [Compound 8]
